target: T1, Xanthine dehydrogenase/oxidase (Homo sapiens, UniProt P47989); test: Inhibition of xanthine oxidase (unknown origin) at 10 uM measured by spectrophotometric analysis relative to control
T1 sequence (P47989 whole entry): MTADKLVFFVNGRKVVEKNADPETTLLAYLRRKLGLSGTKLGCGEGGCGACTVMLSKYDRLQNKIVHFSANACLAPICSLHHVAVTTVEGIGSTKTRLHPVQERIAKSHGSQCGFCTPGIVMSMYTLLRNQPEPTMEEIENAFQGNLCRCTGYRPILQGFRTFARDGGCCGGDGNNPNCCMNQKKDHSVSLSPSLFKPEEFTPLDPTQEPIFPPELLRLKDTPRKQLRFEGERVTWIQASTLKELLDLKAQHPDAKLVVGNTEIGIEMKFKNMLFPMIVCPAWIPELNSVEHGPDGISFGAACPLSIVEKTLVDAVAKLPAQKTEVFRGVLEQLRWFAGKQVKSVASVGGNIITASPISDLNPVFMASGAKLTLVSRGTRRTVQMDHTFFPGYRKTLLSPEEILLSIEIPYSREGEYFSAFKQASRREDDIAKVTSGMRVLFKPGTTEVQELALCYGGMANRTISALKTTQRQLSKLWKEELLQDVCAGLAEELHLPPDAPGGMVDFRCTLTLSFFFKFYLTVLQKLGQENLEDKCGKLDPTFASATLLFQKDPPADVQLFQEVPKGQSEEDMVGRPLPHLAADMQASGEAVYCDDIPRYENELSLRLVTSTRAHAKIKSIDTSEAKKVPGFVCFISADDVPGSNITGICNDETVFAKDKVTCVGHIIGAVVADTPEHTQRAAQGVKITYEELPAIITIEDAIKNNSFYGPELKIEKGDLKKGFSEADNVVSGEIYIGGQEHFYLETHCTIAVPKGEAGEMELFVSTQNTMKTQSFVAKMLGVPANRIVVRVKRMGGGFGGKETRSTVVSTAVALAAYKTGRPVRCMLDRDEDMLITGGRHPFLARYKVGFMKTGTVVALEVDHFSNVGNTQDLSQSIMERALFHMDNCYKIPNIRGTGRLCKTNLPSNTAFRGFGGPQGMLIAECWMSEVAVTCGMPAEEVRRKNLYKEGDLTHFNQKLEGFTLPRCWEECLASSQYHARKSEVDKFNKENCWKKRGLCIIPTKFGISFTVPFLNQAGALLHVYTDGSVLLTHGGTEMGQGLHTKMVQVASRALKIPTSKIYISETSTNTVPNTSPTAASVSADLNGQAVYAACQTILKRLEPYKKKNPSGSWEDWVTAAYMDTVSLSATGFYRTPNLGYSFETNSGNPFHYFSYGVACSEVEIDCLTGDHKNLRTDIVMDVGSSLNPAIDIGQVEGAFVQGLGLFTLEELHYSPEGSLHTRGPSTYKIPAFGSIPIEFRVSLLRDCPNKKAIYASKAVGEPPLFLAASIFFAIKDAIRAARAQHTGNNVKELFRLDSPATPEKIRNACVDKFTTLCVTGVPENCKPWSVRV

Compound	inhibition at 10 µM [%]
NC1=NC(=O)/C(=C/c2cccc(F)c2)S1	91.5
COc1ccc(/C=C2\SC(=S)NC2=O)cc1OC	44.4
O=C1N=C(S)S/C1=C/c1cc(Cl)ccc1O	< 40
N=C1SCC(=O)N1c1ncc(OCc2ccc(Cl)cc2Cl)s1	< 40
Cc1ccc(C(=O)Oc2ccc(Br)cc2/C=C2\SC(N)=NC2=O)cc1	< 40
Cc1ccc(C(=O)Oc2cccc(/C=C3\SC(N)=NC3=O)c2)cc1	< 40
NC1=NC(=O)/C(=C/c2cc(Br)cc(Br)c2OCc2ccc(Cl)cc2Cl)S1	< 40
Cc1ccc(Cl)c2c1NC(=O)/C2=C1/SC(N)=NC1=O	< 40
COc1cc(/C=C2/SC(S)=NC2=O)ccc1Cc1ccccc1Cl	< 40
COc1ccc(/C=C2/SC(N)=NC2=O)cc1	< 40

target: T1, Xanthine dehydrogenase/oxidase; test: Inhibition of xanthine oxidase (unknown origin) at 0.1 uM measured by spectrophotometric analysis relative to control

Compound	inhibition at 0.1 µM [%]
Cc1nc(-c2ccc(OCC(C)C)c(C#N)c2)sc1C(=O)O [FEBUXOSTAT]	102

target: T1, Xanthine dehydrogenase/oxidase; test: Inhibition of xanthine oxidase (unknown origin) measured by spectrophotometric analysis

Compound	IC50 [nM]
NC1=NC(=O)/C(=C/c2cccc(F)c2)S1	1020
Cc1nc(-c2ccc(OCC(C)C)c(C#N)c2)sc1C(=O)O [FEBUXOSTAT]	2.92

— ChEMBL document CHEMBL5143568, “Identification of novel xanthine oxidase inhibitors via virtual screening with enhanced characterization of molybdopterin binding groups” (Eur J Med Chem, 2022)
